The numbers were not newly measured in patent publication US11124883B2, “Method for inhibiting metal corrosion using a benzimidazole-containing composition” (priority 2017, dated 2021), which cites them from elsewhere.

The structures appear in SMILES notation.

The conditions of the data set: at 20° C., according to DrugBank.

In the case of `c1ccc2[nH]cnc2c1` [unsubstituted benzimidazole, benzimidazole], the water solubility entry was “about 20 g/L”.
